Molecular target: afRubisco (Archaeoglobus fulgidus, UniProt O28635)
Assay: coupled NADH assay of 3PGA formed
Assay type: biochemical
Settings: 2 mM RuBp, 10 mM NaHCO3, 20 mM MgCl2, pH 8.2, 65 C; carboxylase activity

Sequence of afRubisco (O28635 whole entry): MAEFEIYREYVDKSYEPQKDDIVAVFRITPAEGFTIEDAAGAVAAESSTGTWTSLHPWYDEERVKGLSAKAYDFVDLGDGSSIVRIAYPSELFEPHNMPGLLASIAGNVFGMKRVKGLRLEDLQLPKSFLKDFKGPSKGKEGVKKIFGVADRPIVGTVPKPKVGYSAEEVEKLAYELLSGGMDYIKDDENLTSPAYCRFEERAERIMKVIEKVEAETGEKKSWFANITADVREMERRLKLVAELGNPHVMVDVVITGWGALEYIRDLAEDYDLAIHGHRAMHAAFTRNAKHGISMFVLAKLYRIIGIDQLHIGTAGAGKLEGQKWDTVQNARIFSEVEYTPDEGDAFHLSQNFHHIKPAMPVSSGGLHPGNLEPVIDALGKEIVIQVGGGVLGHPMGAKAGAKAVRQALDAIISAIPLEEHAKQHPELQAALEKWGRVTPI

## O=C(COP(=O)(O)O)[C@H](O)[C@H](O)COP(=O)(O)O [RuBp]
  coupled NADH assay of 3PGA formed (340 nm): Activated afRubisco has very low carboxylase activity at room temperature but has much higher

From paper PMC10336775 (Proteins, 2022)
